# “Also recorded” adds a separate entry of the source.
# Key:
# [1] = Cryo-TEM of remote loaded liposomes (intraliposomal precipitation); format: physicochemical
# Method: CryoTEM samples of 3 μL of liposome solution was placed on a lacy carbon 300 mesh copper TEM grid, blotted and plunge frozen in liquid ethane using a FEI Vitrobot Mark IV. Samples were imaged using a FEI Tecnai G2 20 TWIN transmission electron microscope operated at 200 keV in low dose mode with a FEI High-Sensitive (HS) 4 k×4 k Eagle camera.
# [2] = tested on: whole human blood; assay: IL-12p40 cytokine expression in stimulated whole human blood (ELISA); format: cell-based
# Method: (§1) This example describes the general procedure used to assess the level of cytokine IL-6 and IL-12p40 expressions upon stimuli of whole human blood with small molecules or small molecules in liposomal formulations F1 and F2. 10 mM DMSO solutions of the small molecules were diluted in RPMI media (RPMI-1640, Sigma Aldrich) with 1% penicillin/streptomycin (p/s). […], of each dilution was transferred to Nunc™ 96-Well Polystyrene Conical Bottom MicroWell™ Plates in duplicates. Blood was drawn from two human donors, diluted in RPMI with 1% p/s and added to each well to reach final concentrations of 10 μM, 1 μM, and 0.1 μM of the small molecules. The plates were incubated at 37° C. in a cell incubator for 24h. The plates were then spun down in a plate centrifuge with 3200 revolutions per minute (rpm) for 10 min before 50 uL of the supernatant was transferred to new 96-well plates. The supernatant samples were subsequently stored at −80° C. until the day of cytokine measurements.
# (§2) The level of cytokine expression was measured using either an IL-6 ELISA Kit (RnDSystems, cat #DY206) for IL-6, or an IL-12p40 ELISA Kit (RnDSystems, cat #DY1240) according to the manufacturer's protocols. This general procedure was used to generate the examples 24-33.
# [3] = tested on: whole human blood; assay: IL-6 cytokine expression in stimulated whole human blood (ELISA); format: cell-based
# Method: as §1, §2
# [4] = Remote loading efficiency of small molecules into liposomes (PD-10 size exclusion, HPLC); format: physicochemical
# Method: A solution of the small molecule (modified TLR agonist) was lyophilized in a vial equipped with a magnetic stir bar over night to form a fluffy white powder. This powder was added either formulation F1 or F2 to the wanted drug/lipid ratio. The resulting mixture was stirred at 55° C. or 41° C. for formulation F1 and F2 respectively for 3h, then allowed to cool to rt before the solutions were refrigerated and stored at 4° C.
# Remote loading efficiency was determined at 1 h and 3 h by taking out 100 μL of the mixture and applying this and 900 μL buffer (25 mM HEPES, 10 vol % sucrose buffer, pH 7.4) to a PD-10 column size exclusion column. Following, 10×1 mL fractions were collected, and the small molecule compound concentrations in the loading mixture and in the liposome containing fractions were determined on analytical HPLC. Loading efficiency was calculated as percentage of molecules found in liposome containing fractions out of the applied amount. The general procedure for the small molecule remote loading is visualized in FIG. 3. The general concept of remote loading imidazoquinolines in liposomes that are dialyzed against HEPES is visualized in FIG. 4.
# [5] = free small molecule, 10, 1, 0.1 μM, 24 h, two donors
smiles,measurement,setting,value
"CCOCc1nc2c(N)nc3ccccc3c2n1CCN [MK079-D, 1-(2-aminoethyl)-2-(ethoxymethyl)-1H-imidazo[4,5-c]quinolin-4-amine]",Precipitation in liposomes (Cryo-TEM),"[1]; formulation F1, HEPES, drug/lipid ratio 0.25",precipitation of the small molecule inside the aqueous core of the liposomes
same,Precipitation in liposomes (Cryo-TEM),"[1]; formulation F1, HEPES, drug/lipid ratio 0.50",precipitation of the small molecule in the aqueous core of the liposomes
same,Precipitation in liposomes (Cryo-TEM),"[1]; formulation F2, drug/lipid ratio 0.25",precipitation of the small molecule in the aqueous core of the liposomes
same,Precipitation in liposomes (Cryo-TEM),"[1]; formulation F2, drug/lipid ratio 0.50",precipitation of the small molecule in the aqueous core of the liposomes
same,Expression of IL-12p40 upon stimulation of whole human blood,[2]; [5],expression of IL-12p40 at 10 μM in both donors
same,Expression of IL-12p40 upon stimulation of whole human blood,"[2]; remote loaded in formulation F1, HEPES or TAPS, drug/lipid ratio 0.06",did not lead to any expression of IL-12p40
same,Expression of IL-12p40 upon stimulation of whole human blood,"[2]; remote loaded in formulation F2, HEPES or TAPS, drug/lipid ratio 0.06",Induction of IL-12p40 expression was observed; also recorded: larger expression of IL-12p40 when dialyzed against HEPES compared to TAPS
same,Expression of IL-6 upon stimulation of whole human blood,[3]; [5],expression of IL-6 at 10 μM in both donors
same,Expression of IL-6 upon stimulation of whole human blood,"[3]; remote loaded in formulation F1, HEPES, drug/lipid ratio 0.06",an expression of IL-6 at 10 μM
same,Expression of IL-6 upon stimulation of whole human blood,"[3]; remote loaded in formulation F1, TAPS, drug/lipid ratio 0.06",no expression of IL-6 at 10 μM
same,Expression of IL-6 upon stimulation of whole human blood,"[3]; remote loaded in formulation F2, HEPES, drug/lipid ratio 0.06",able to induce expression of IL-6
same,Expression of IL-6 upon stimulation of whole human blood,"[3]; remote loaded in formulation F2, TAPS, drug/lipid ratio 0.06",resulted in an expression of IL-6
same,Remote loading efficiency 1 h (%),"[4]; formulation F1, HEPES, drug/lipid ratio 0.06, 1 h",87%
same,Remote loading efficiency 3 h (%),"[4]; formulation F1, HEPES, drug/lipid ratio 0.06, 3 h",98%
same,Remote loading efficiency 1 h (%),"[4]; formulation F1, HEPES, drug/lipid ratio 0.10, 1 h",93%
same,Remote loading efficiency 3 h (%),"[4]; formulation F1, HEPES, drug/lipid ratio 0.10, 3 h",95%
same,Remote loading efficiency 1 h (%),"[4]; formulation F1, HEPES, drug/lipid ratio 0.25, 1 h",90%
same,Remote loading efficiency 3 h (%),"[4]; formulation F1, HEPES, drug/lipid ratio 0.25, 3 h",98%
same,Remote loading efficiency 1 h (%),"[4]; formulation F1, HEPES, drug/lipid ratio 0.50, 1 h",77%
same,Remote loading efficiency 3 h (%),"[4]; formulation F1, HEPES, drug/lipid ratio 0.50, 3 h",70%
same,Remote loading efficiency 1 h (%),"[4]; formulation F1, TAPS pH 8.5, drug/lipid ratio 0.06, 1 h",80%
same,Remote loading efficiency 3 h (%),"[4]; formulation F1, TAPS pH 8.5, drug/lipid ratio 0.06, 3 h",77%
same,Remote loading efficiency 1 h (%),"[4]; formulation F2, HEPES, drug/lipid ratio 0.06, 1 h",81%
same,Remote loading efficiency 3 h (%),"[4]; formulation F2, HEPES, drug/lipid ratio 0.06, 3 h",81%
same,Remote loading efficiency 1 h (%),"[4]; formulation F2, HEPES, drug/lipid ratio 0.10, 1 h",82%
same,Remote loading efficiency 3 h (%),"[4]; formulation F2, HEPES, drug/lipid ratio 0.10, 3 h",88%
same,Remote loading efficiency 1 h (%),"[4]; formulation F2, HEPES, drug/lipid ratio 0.25, 1 h",90%
same,Remote loading efficiency 3 h (%),"[4]; formulation F2, HEPES, drug/lipid ratio 0.25, 3 h",94%
same,Remote loading efficiency 1 h (%),"[4]; formulation F2, HEPES, drug/lipid ratio 0.50, 1 h",73%
same,Remote loading efficiency 3 h (%),"[4]; formulation F2, HEPES, drug/lipid ratio 0.50, 3 h",57%
same,Remote loading efficiency 1 h (%),"[4]; formulation F2, TAPS pH 8.5, drug/lipid ratio 0.06, 1 h",80%
same,Remote loading efficiency 3 h (%),"[4]; formulation F2, TAPS pH 8.5, drug/lipid ratio 0.06, 3 h",70%

# Reference: patent US20210213010A1, “TLR7/8 AGONISTS AND LIPOSOME COMPOSITIONS” (Torque Therapeutics, Inc., priority 2018, published 2021)
